The record followed here is publication PMC7307906, “Macrocyclic Modalities Combining Peptide Epitopes and Natural Product Fragments” (Journal of the American Chemical Society, 2020).

Experiment [1] deals with T1, human MC1R (Homo sapiens, UniProt Q01726).
T1 construct: expressed in transfected cells
The experiment can be described thus: cAMP assay (LANCE) in T-Rex-293 cells expressing MC1R. The class given is cell-based. To be noted: for Emax: T-REx-293, read-out: % Effect hMC1R cAMP; for EC50: cAMP assay, mean (± SEM) of at least three independent experiments, read-out: EC50 hMC1R cAMP. (In general: cAMP levels reflect the balance of adenylyl cyclase and phosphodiesterase activity.)

Experiment [2] concerns the target T2, human MC3R (Homo sapiens, UniProt P41968).
T2 construct: expressed in transfected cells
Description: cAMP assay (LANCE) in T-Rex-293 cells expressing MC3R. The class given is cell-based. To be noted: for EC50: cAMP assay, mean (± SEM) of at least three independent experiments, read-out: EC50 hMC3R cAMP.

The next experiment concerns the target T3, human MC5R (Homo sapiens, UniProt P33032).
T3 construct: expressed in transfected cells; host or cells: HEK293-6E suspension cells, transient expression; membranes
Description: Melanocortin receptor radioligand binding (SPA, [125I]-NDP-α-MSH displacement), MC5R. To be noted: for IC50: competitive binding, [125I]-NDP-α-MSH, mean (± SEM) of at least three independent experiments, read-out: IC50 hMC5R binding.

The target in experiment [3] is T4, human MC4R (Homo sapiens, UniProt P32245).
T4 construct: expressed in transfected cells
T4 sequence (P32245 whole entry): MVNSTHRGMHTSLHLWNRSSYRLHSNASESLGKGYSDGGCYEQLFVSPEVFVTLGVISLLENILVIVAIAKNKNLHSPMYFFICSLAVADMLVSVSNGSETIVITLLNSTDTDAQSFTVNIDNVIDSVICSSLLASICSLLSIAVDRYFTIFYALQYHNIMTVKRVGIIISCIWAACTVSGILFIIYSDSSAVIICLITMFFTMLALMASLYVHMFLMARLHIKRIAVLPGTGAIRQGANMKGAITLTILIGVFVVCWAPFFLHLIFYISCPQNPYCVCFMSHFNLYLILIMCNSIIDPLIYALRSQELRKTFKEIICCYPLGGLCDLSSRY
The experiment can be described thus: Melanocortin receptor radioligand binding (SPA, [125I]-NDP-α-MSH displacement), MC4R. To be noted: competitive binding, mean (± SEM) of at least three independent experiments, read-out: IC50 hMC4R binding.

Experiment [4] concerns the target T1, human MC1R. Description: Melanocortin receptor radioligand binding (SPA, [125I]-NDP-α-MSH displacement), MC1R. To be noted: competitive binding, mean (± SEM) of at least three independent experiments, read-out: IC50 hMC1R binding.
Experiment [5] concerns the target T4, human MC4R. The experiment can be described thus: cAMP assay (LANCE) in T-Rex-293 cells expressing MC4R. The class given is cell-based. To be noted: for EC50: cAMP assay, mean (± SEM) of at least three independent experiments, read-out: EC50 hMC4R cAMP.
Experiment [6] concerns the target T2, human MC3R. The experiment can be described thus: Melanocortin receptor radioligand binding (SPA, [125I]-NDP-α-MSH displacement), MC3R. To be noted: competitive binding, mean (± SEM) of at least three independent experiments, read-out: IC50 hMC3R binding.
Setting [7] is: Emax (curve plateau), relative to NDP-α-MSH, NA = No Activity detected, threshold 20% effect.

Broadly, the EC50 is the concentration needed to bring the measured effect to its halfway point. In general, IC50 refers to the midpoint of a concentration-inhibition curve.

T3 sequence (P33032 whole entry): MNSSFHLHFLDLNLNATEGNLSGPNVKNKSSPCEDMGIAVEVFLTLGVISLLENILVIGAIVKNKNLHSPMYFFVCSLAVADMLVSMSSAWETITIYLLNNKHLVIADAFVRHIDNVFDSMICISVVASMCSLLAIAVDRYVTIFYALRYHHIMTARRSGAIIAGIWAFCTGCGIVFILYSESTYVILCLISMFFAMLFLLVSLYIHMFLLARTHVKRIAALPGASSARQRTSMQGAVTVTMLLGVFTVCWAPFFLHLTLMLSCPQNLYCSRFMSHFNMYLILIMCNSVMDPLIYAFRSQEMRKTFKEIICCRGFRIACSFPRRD
T1 sequence (Q01726 whole entry): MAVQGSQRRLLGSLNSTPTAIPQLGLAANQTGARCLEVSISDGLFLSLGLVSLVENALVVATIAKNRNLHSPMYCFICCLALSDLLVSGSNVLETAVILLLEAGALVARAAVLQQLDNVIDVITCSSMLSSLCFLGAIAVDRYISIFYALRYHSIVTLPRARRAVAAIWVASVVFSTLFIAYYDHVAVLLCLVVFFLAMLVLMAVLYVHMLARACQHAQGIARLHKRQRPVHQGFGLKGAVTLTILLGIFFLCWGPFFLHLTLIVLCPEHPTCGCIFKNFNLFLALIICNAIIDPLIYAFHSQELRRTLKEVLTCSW
T2 sequence (P41968 whole entry): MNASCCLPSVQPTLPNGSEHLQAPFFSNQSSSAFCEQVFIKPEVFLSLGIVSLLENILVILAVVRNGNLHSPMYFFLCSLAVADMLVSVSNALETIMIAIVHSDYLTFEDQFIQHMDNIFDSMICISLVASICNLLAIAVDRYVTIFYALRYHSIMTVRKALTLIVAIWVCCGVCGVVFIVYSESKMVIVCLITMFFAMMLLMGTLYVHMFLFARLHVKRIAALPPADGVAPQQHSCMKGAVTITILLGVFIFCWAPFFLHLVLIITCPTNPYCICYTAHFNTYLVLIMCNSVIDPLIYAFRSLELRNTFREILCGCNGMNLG

Consider `CN1C(=O)[C@H]2N[C@@H](c3ccc(cc3)C(=O)NCCCC[C@@H](C(=O)N[C@@H](Cc3ccc(O)cc3)C(N)=O)NC(=O)[C@H](CC(N)=O)NC(=O)[C@H](Cc3ccccc3)NC(=O)[C@H](Cc3ccccc3)NC(=O)[C@H](CCCNC(=N)N)NC(=O)[C@@H]1Cc1ccccc1)[C@H]1C(=O)N(c3ccccc3)C(=O)[C@H]12` [J2-major, [ II-FRFFNK ]Y], for which, at human MC1R [1], the Emax worked out at 46%. The results for the EC50 at human MC1R [1], on human MC3R [2] and on human MC4R [5] were 6.4 ± 0.3 µM, > 100 µM and > 100 µM, respectively. The IC50 on human MC5R was determined as 11 ± 1 µM; at human MC4R [3], 38 ± 6 µM; on human MC1R [4], 32 ± 1 µM; on human MC3R [6], 39 ± 2 µM.

As for `CN1C(=O)[C@H]2N[C@@H](c3ccc(cc3)C(=O)NCCCC[C@@H](C(=O)NCC(N)=O)NC(=O)[C@H](CC(N)=O)NC(=O)[C@H](Cc3ccccc3)NC(=O)[C@H](Cc3ccccc3)NC(=O)[C@H](CCCNC(=N)N)NC(=O)[C@@H]1Cc1ccccc1)[C@H]1C(=O)N(c3ccccc3)C(=O)[C@H]12` [J3-major*, [ II-FRFFNK ]G], the Emax on human MC1R [1] came to 63%. Besides, the EC50 at human MC1R [1] was 14 ± 5 µM; at human MC3R [2] it was > 100 µM; on human MC4R [5] it was > 100 µM. For the same compound, the IC50 was 54 ± 6 µM at human MC5R, > 100 µM at human MC4R [3], 78 ± 2 µM at human MC1R [4] and > 100 µM on human MC3R [6].

For `CN1C(=O)[C@@H]2N[C@H](c3ccc(cc3)C(=O)NCCCC[C@@H](C(=O)NCC(N)=O)NC(=O)[C@H](CC(N)=O)NC(=O)[C@H](Cc3ccccc3)NC(=O)[C@H](Cc3ccccc3)NC(=O)[C@H](CCCNC(=N)N)NC(=O)[C@@H]1Cc1ccccc1)[C@@H]1C(=O)N(c3ccccc3)C(=O)[C@@H]12` [J3-minor*, [ II-FRFFNK ]G], the EC50 at human MC1R [1], on human MC3R [2] and at human MC4R [5] was > 100 µM throughout. Moreover, the IC50 at human MC5R was 6.2 ± 0.5 µM; at human MC4R [3], 17 ± 2 µM; at human MC1R [4] it was 13 ± 1 µM; at human MC3R [6] it was 21 ± 1 µM.

On to `CN1C(=O)[C@@H]2N[C@H](c3ccc(cc3)C(=O)NCCCC[C@@H](C(=O)N[C@@H](Cc3ccc(O)cc3)C(N)=O)NC(=O)[C@H](CC(N)=O)NC(=O)[C@@H](Cc3ccccc3)NC(=O)[C@@H](Cc3ccccc3)NC(=O)[C@H](CCCNC(=N)N)NC(=O)[C@@H]1Cc1ccccc1)[C@@H]1C(=O)N(c3ccccc3)C(=O)[C@@H]12` [K1-major, [II-FRffNK ]Y], for which the Emax on human MC1R [1] came to 47%. The EC50 at human MC1R [1] was 4.1 ± 0.4 µM; at human MC3R [2], > 100 µM; on human MC4R [5] it was > 100 µM. The IC50 at human MC5R was determined as 4.1 µM; at human MC4R [3], 54 ± 4 µM; at human MC1R [4], 31 ± 3 µM; at human MC3R [6] it was 19 ± 3 µM. In addition, the “selectivity for MC5R against MC1R” value at human MC5R (ratio of binding IC50, MC1R versus MC5R) was 7 fold. In addition, at human MC5R (ratio of binding IC50, MC3R versus MC5R), the “selectivity for MC5R against MC3R” value is recorded as 5 fold. Besides, the “selectivity for MC5R against MC4R” value at human MC5R (ratio of binding IC50, MC4R versus MC5R) was 13 fold.

On to `CN1C(=O)[C@@H]2[C@H](C1=O)[C@H]1N[C@@H]2C(=O)N(C)[C@@H](Cc2ccccc2)C(=O)N[C@@H](CCCNC(=N)N)C(=O)N[C@H](Cc2ccccc2)C(=O)N[C@H](Cc2ccccc2)C(=O)N[C@@H](CC(N)=O)C(=O)N[C@H](C(=O)NCC(N)=O)CCCCNC(=O)c2ccc1cc2` [K2-minor, [I-FRffNK ]G], for which the EC50 on human MC1R [1], on human MC3R [2] and at human MC4R [5] was > 10 µM each time. The 50% inhibitory concentration (IC50) at human MC5R, on human MC4R [3], on human MC1R [4] and at human MC3R [6] was > 10 µM throughout.

As to `CN1C(=O)[C@@H]2N[C@H](c3ccc(cc3)C(=O)NCCCC[C@@H](C(=O)NCC(N)=O)NC(=O)[C@H](CC(N)=O)NC(=O)[C@@H](Cc3ccccc3)NC(=O)[C@@H](Cc3ccccc3)NC(=O)[C@H](CCCNC(=N)N)NC(=O)[C@@H]1Cc1ccccc1)[C@@H]1C(=O)N(c3ccccc3)C(=O)[C@@H]12` [K3-major, [II-FRffNK ]G], the Emax at human MC1R [1] came to 42%. Besides, the EC50 at human MC1R [1], on human MC3R [2] and on human MC4R [5] was > 10 µM throughout. Further, the IC50 on human MC5R is 4.2 ± 0.1 µM; at human MC4R [3], > 10 µM; at human MC1R [4] it was > 10 µM; on human MC3R [6] it was > 10 µM.

On to `CN1C(=O)[C@H]2N[C@@H](c3ccc(cc3)C(=O)NCCCC[C@@H](C(=O)NCC(N)=O)NC(=O)[C@H](CC(N)=O)NC(=O)[C@@H](Cc3ccccc3)NC(=O)[C@@H](Cc3ccccc3)NC(=O)[C@H](CCCNC(=N)N)NC(=O)[C@@H]1Cc1ccccc1)[C@H]1C(=O)N(c3ccccc3)C(=O)[C@H]12` [K3-minor, [II-FRffNK ]G], for which the EC50 at human MC1R [1], at human MC3R [2] and on human MC4R [5] was > 10 µM throughout. The IC50 on human MC5R, at human MC4R [3], at human MC1R [4] and on human MC3R [6] was > 10 µM in each case.

Take `COc1ccc(N2C(=O)[C@@H]3[C@H](C2=O)[C@H]2N[C@@H]3c3ccc(cc3)C(=O)NCCCC[C@@H](C(=O)NCC(N)=O)NC(=O)[C@H](CC(N)=O)NC(=O)[C@@H](Cc3ccccc3)NC(=O)[C@@H](Cc3ccccc3)NC(=O)[C@H](CCCNC(=N)N)NC(=O)[C@H](Cc3ccccc3)N(C)C2=O)cc1` [K4-major, [III-FRffNK ]G]: on human MC1R [1], the Emax was 85%. In addition, the EC50 at human MC1R [1] was 3.9 ± 0.5 µM; at human MC3R [2], 6.4 ± 1.1 µM; on human MC4R [5] it was 3.7 ± 0.2 µM. The “% Effect hMC3R cAMP” value at human MC3R [2] (setting [7]) came out at 26%. In addition, the IC50 at human MC5R is 16 ± 1 µM; on human MC4R [3], > 100 µM; on human MC1R [4], 58 ± 1 µM; at human MC3R [6], 57 ± 1 µM. On human MC4R [5] (setting [7]), the “% Effect hMC4R cAMP” value is reported as 66%.

Regarding `COc1ccc(N2C(=O)[C@@H]3[C@H](C2=O)[C@H]2N[C@@H]3C(=O)N(C)[C@@H](Cc3ccccc3)C(=O)N[C@@H](CCCNC(=N)N)C(=O)N[C@H](Cc3ccccc3)C(=O)N[C@H](Cc3ccccc3)C(=O)N[C@@H](CC(N)=O)C(=O)N[C@H](C(=O)NCC(N)=O)CCCCNC(=O)c3ccc2cc3)cc1` [K4-minor, [III-FRffNK ]G], the “% Effect hMC1R cAMP at 100 µM” value on human MC1R [1] (% effect at 100 µM, compounds not reaching an upper plateau (§)) came out at 23%. Moreover, the concentration for a half-maximal effect (EC50) on human MC1R [1], at human MC3R [2] and at human MC4R [5] was > 100 µM throughout. Moreover, the IC50 on human MC5R was 91 ± 3 µM; at human MC4R [3], > 100 µM; on human MC1R [4] it was > 100 µM; at human MC3R [6], > 100 µM.

As to `COc1cc(N2C(=O)[C@@H]3[C@H](C2=O)[C@H]2N[C@@H]3c3ccc(cc3)C(=O)NCCCC[C@@H](C(=O)NCC(N)=O)NC(=O)[C@H](CC(N)=O)NC(=O)[C@@H](Cc3ccccc3)NC(=O)[C@@H](Cc3ccccc3)NC(=O)[C@H](CCCNC(=N)N)NC(=O)[C@H](Cc3ccccc3)N(C)C2=O)cc(OC)c1OC` [K5-major, [XI-FRffNK ]G], the EC50 at human MC1R [1], on human MC3R [2] and at human MC4R [5] was > 10 µM each time. The IC50 on human MC5R, at human MC4R [3], at human MC1R [4] and at human MC3R [6] was > 10 µM each time.

With `CN1C(=O)[C@H]2N[C@@H](c3ccc(cc3)C(=O)NCCCC[C@@H](C(=O)N[C@@H](Cc3ccc(O)cc3)C(N)=O)NC(=O)[C@H](Cc3ccccc3)NC(=O)[C@H](Cc3ccccc3)NC(=O)[C@H](CCCNC(=N)N)NC(=O)[C@@H]1Cc1ccccc1)[C@H]1C(=O)N(c3ccccc3)C(=O)[C@H]12` [N1-major*, [II-FRFFK ]Y], the “% Effect hMC1R cAMP at 10 µM” value on human MC1R [1] (% effect at 10 µM, compounds not reaching an upper plateau (#)) was found to be 33%. Further, the EC50 on human MC1R [1], on human MC3R [2] and on human MC4R [5] was > 10 µM in each case. In addition, the half-inhibitory concentration (IC50) at human MC5R, at human MC4R [3], at human MC1R [4] and at human MC3R [6] was > 10 µM each time.

In the case of `CN1C(=O)[C@H]2N[C@@H](c3ccc(cc3)C(=O)NCCCC[C@@H](C(=O)NCC(N)=O)NC(=O)[C@H](Cc3ccccc3)NC(=O)[C@H](Cc3ccccc3)NC(=O)[C@H](CCCNC(=N)N)NC(=O)[C@@H]1Cc1ccccc1)[C@H]1C(=O)N(c3ccccc3)C(=O)[C@H]12` [N2-major*, [II-FRFFK ]G], the Emax on human MC1R [1] was 46%. The EC50 is 14 ± 4 µM on human MC1R [1], > 100 µM at human MC3R [2] and > 100 µM at human MC4R [5]. In addition, the IC50 at human MC5R is 38 ± 2 µM; on human MC4R [3] it was > 100 µM; at human MC1R [4] it was > 100 µM; at human MC3R [6] it was > 100 µM.

On to `CN1C(=O)[C@H]2N[C@@H](c3ccc(cc3)C(=O)NCCCC[C@@H](C(N)=O)NC(=O)[C@H](Cc3ccccc3)NC(=O)[C@H](Cc3ccccc3)NC(=O)[C@H](CCCNC(=N)N)NC(=O)[C@@H]1Cc1ccccc1)[C@H]1C(=O)N(c3ccccc3)C(=O)[C@H]12` [N3-major*, [II-FRFFK ]], for which the Emax on human MC1R [1] was 40%. Further, the EC50 on human MC1R [1] is 22 ± 3 µM; at human MC3R [2] it was > 100 µM; at human MC4R [5] it was > 100 µM. Further, the IC50 on human MC5R was 74 ± 4 µM; at human MC4R [3], > 100 µM; at human MC1R [4] it was > 100 µM; on human MC3R [6], > 100 µM.
